Experimental data: US4254285A, “1-Hydroxymethyl-1-1-oxo prostane derivatives of the E and F series” (American Cyanamid Company, priority 1979, dated 1981)

Columns and labels:
Type in all cases: in vivo
[1] = system: bronchospasms elicited by acetylcholine; assay: Bronchodilator Activity (Konzett Assay), acetylcholine; conditions: Cavia porcellus; guinea pig, intravenous, spasmogen acetylcholine, three logarithmic cumulative doses; read-out: ED50
Experimental: (§1) The bronchodilator activity of some of the PGE compounds of this invention is determined in guinea pigs against bronchospasms elicited by intravenous injections of 5-hydroxytryptamine, histamine or acetylcholine by the Konzett procedure. [See J. Lulling, P. Lievens, F. El Sayed and J. Prignot, Arzneimittel-Forschung, 18, 995 (1968)].
(§2) In the Table B which follows, bronchodilator activity for representative compounds of this invention against one or more of the three spasmogenic agents is expressed as an ED50 determined from the results obtained with three logarithmic cumulative intravenous doses.

[2] = system: bronchospasms elicited by 5-hydroxytryptamine; assay: Bronchodilator Activity (Konzett Assay), 5-hydroxytryptamine; conditions: Cavia porcellus; guinea pig, intravenous, spasmogen 5-hydroxytryptamine, three logarithmic cumulative doses; read-out: ED50
Experimental: as §1, §2

[3] = system: continuous respiratory spasm induced by pilocarpine; assay: Bronchodilator Activity (Pilocarpine Assay); conditions: Canis lupus familiaris, inhaled or nasal, dog, aerosol, 3.2 mg/ml
Experimental: The PGE compounds of this invention also have bronchodilator activity as determined in a test using dogs anesthetized, artificially ventilated and submitted to a continuous respiratory spasm induced by pilocarpine. Mongrel dogs of either sex weighing between 5 and 10 kg are used. They are premedicated with morphine HCl by subcutaneous injection at 1.5 mg/Kg. An intravenous perfusion of 5% (W/V) chloralose is started 1/2 hour after the morphine injection in such a way that 60 mg/Kg are administered within 15 minutes. After completion, a continuous perfusion of 10 mg/Kg hour is maintained throughout the experiment. The dogs are artificially ventilated by means of a Starling pump at a rate of 20 breaths/minute. The volume is adjusted according to the weight of the animal. [Kleinman and Radford, J. Appl. Physiol., 19, 360 (1964)]. All the measurements are made with the dogs positioned supine in a heated, V-shaped table. Curarization is obtained by succinylcholine chloride using a starting injection of 3 mg/Kg lasting 3 minutes, followed by a continuous perfusion of 0.1 mg/Kg/minute. The respiratory spasm is induced by a starting injection of 400 mcg/Kg of pilocarpine HCl lasting 5 minutes. An increase or decrease in the dose of pilocarpine HCl may occur as a function of the observed effect on airway's resistance. A 15 minute delay is observed before the start of a continuous perfusion of pilocarpine HCl at a dose of 4 mcg/Kg/minute to maintain a constant spasm during the test. A metallic cannula is inserted and fixed, after tracheotomy, into the upper part of the trachea. The two cephalic veins and the two femoral veins are catheterized to inject the various agents. The femoral artery is catheterized to measure the systemic blood pressure. An esophageal balloon (11 cm×2.5 cm) is inserted into the lower third of the oesophagus to measure the endothoracic pressure. The measurement of air flow is made with a […] pneumotachograph connected to the tracheal tube. The transpulmonary pressure is measured as follows: The tracheal cannula is equipped with a stainless steel axial tube (1.5 mm) which is closed at its distal end and projected 2.5 cm beyond the end of the cannula. Three holes with a diameter of one mm are pierced on this latter segment. This tube, which is used to measure the tracheal pressure, is connected to one of the two chambers of a Sanborn 267 B/C differential transducer. The other chamber is connected to the esophageal balloon by means of a polyethylene catheter of the same length and characteristics as the balloon's. The airway's resistance, expressed in cm of water/liter/second, is measured by subtracting from the electrical equivalent of the transpulmonary pressure, a voltage proportional to the flow so as to synchronize the pressure and volume signals on the oscilloscope [Mead and Whittenberger, J. Appl. Physiol, 5, 779 (1953)]. The test compounds are administered by an Aerosol® route. The micronebulizer of a Bird Mark 7 respirator is fitted on the metallic cannula just after the pneumotachograph. The "puff" of the test compound, in Aerosol® is driven by a 2 Kg/cm^2 pressure, allowed into the micronebulizer just during one inspiration cycle. The micronebulizer is fitted on the respiratory tube only during the "puff". It is weighed just before and just after administration to determine the amount of test compound administered.

gastric acid secretion = assay: Gastric Acid Secretion in the Dog Fistula; conditions: 10 μg/kg I.G.; for cumulative two-hour gastric secretion, acid: n = 6, control 17.2 ± 1.6; for cumulative two-hour gastric secretion, volume: n = 6, control 130 ± 11
Experimental: Three mongrel dogs (20-32 kg) were surgically prepared with stainless steel cannulae. These were inserted into the most dependent portion of the ventral stomach and exteriorized through the abdomen for the collection of gastric secretions. The dogs were trained to stand quietly in a Pavlov support and were conscious during subsequent secretory studies.
^a After a 26hour fast, gastric acid secretion was submaximally
stimulated, beginning 45 minutes after treatment, using a constant
intravenous infusion of histamine acid phosphate ([…]).
^b Each of three dogs was treated six to seven times with vehicle
(control) and one to three times with each compound; n is the number of
experiments conducted with each treatment.
^c Total secretion from 45-120 minutes following intragastric (I.G.)
administration of drugs or vehicle. Mean effects of treatment were
compared to control means by Student's t test. Compound A is […]

[4] = system: stress-induced (immersion) ulcers; assay: Restraint--Immersion Stress Ulcers in the Rat (Wilson)
Experimental: Male "Sprague--Dawley Derived" rats (Locke--Erickson Laboratories, Maywood, Illinois) weighing 150 to 200 g, are fasted, and provided drinking water for 16 to 19 hours prior to the start of the study. At 0 time the rats are dosed orally with compound or vehicle, (approximately 0.5 ml) and then secured in a Bollman-type restraining cage. Five minutes after dosing, the animals are immersed (tail downward) to "shoulder level" into a 22° C. water bath for 100 minutes. At the end of this period, the animals are decapitated and their stomachs promptly excised with about 5 mm each of esophagus and duodenum.
With a blunt tipped scissor the stomach is opened along the greater curvature, starting at the tip of the rumen through the glandular mucosa into the pylorus and opening the bit of duodenum along its amesenteric border. Debris is removed from stomach by rinsing in saline at room temperature and gently blotting it with gauze or filter paper. The stomach is then spread out, mucosal surface upward on a 3×5 file card or similar material.
With an illuminated magnifier the lesions are counted (for total lesion count) and scored (for weighted score) after the method described by G. Osterloh, et al., Arzneimittel-Forschung, 16 (8a):901910, August 1966. The score for each lesion is given in the following table, modified from the paper.
Very large (area) non-perforating lesions are frequently seen. These are measured as so many 3 mm diameter ulcers and scored as multiples of #7.
Rats were dosed by gavage with compound or vehicle and submerged into a
22° C. water bath for 100 minutes. At the end of this period,
animals were sacrificed and their stomachs removed and scored for ulcers.

[5] = system: bronchospasms elicited by histamine; assay: Bronchodilator Activity (Konzett Assay), histamine; conditions: Cavia porcellus; guinea pig, intravenous, spasmogen histamine, three logarithmic cumulative doses; read-out: ED50
Experimental: as §1, §2

[6] = 5 min, 5 min. after drug administration
[7] = 0.5 h, 30 min. after drug administration
[8] = 1 h, 60 min. after drug administration

CCCCC(C)(O)CC=CC1C(O)CC(=O)C1CC=CCCCC(=O)CO (stereo not drawn) [1,9-dioxo-11α,16-dihydroxy-16-methyl-1-hydroxymethyl-5-cis-13-trans-prostadiene]
ED50 [1]: 6.4 µg/kg
ED50 [2]: 3.81 µg/kg
inhibition at 3200 µg/mL [3, 6]: 90%
inhibition at 3200 µg/mL [3, 7]: 90%
inhibition at 3200 µg/mL [3, 8]: 70%
cumulative two-hour gastric secretion, acid (gastric acid secretion): 7.5 ± 2.1 mEq H^+
cumulative two-hour gastric secretion, volume (gastric acid secretion): 76 ± 16 mL
% Reduction of ulcer score ([4]; 200 mg/Kg P.O.): 85%
% Reduction of ulcer score ([4]; 500 mg/Kg P.O.): 95%
ED50 [5]: 3 µg/kg

CCCCC(C)(O)CC=CC1C(O)CC(=O)C1CCCCCCC(=O)CO (centres unmarked)
ED50 [1]: 4.7 µg/kg
ED50 [2]: 3 µg/kg
inhibition at 3200 µg/mL [3, 6]: 90%
inhibition at 3200 µg/mL [3, 7]: 70%
inhibition at 3200 µg/mL [3, 8]: 45%
cumulative two-hour gastric secretion, acid (gastric acid secretion): 6.9 ± 2.8 mEq H^+
cumulative two-hour gastric secretion, volume (gastric acid secretion): 59 ± 19 mL
% Reduction of ulcer score ([4]; 3 mg/Kg P.O.): 62%
% Reduction of ulcer score ([4]; 16 mg/Kg P.O.): 85%
% Reduction of ulcer score ([4]; 80 mg/Kg P.O.): 82%
% Reduction of ulcer score ([4]; 200 mg/Kg P.O.): 67%
% Reduction of ulcer score ([4]; 500 mg/Kg P.O.): 82%
ED50 [5]: 0.943 µg/kg
